# Reference: patent publication US6514918B1, “Viscous, mild, and effective cleansing compositions” (Johnson & Johnson Consumer Companies, Inc., priority 2000, dated 2003)
# How the values were obtained:
# [1] = Foam Generation (Foam Tray Test); format: physicochemical; conditions: 1.0% in cleansing composition; acceptable if at least twice the foam of Example 1
# Description: 1. Foam Generation: 1 g of a cleansing composition sample was added to a tray containing 5 liters of tap water, then gently mixed until homogenous without generating any foam. A Model AJMP14 Jiffy Mixer mechanical mixer available from U.S. Best, Inc. with an attached propeller blade was then set at a level in the tray such that the propeller blade was halfway immersed in the mixture. The mixer was then activated at a speed of 2000 RPM for 30 seconds to generate foam. Foam data was collected via photography using a Polaroid MP4+ camera at 30 seconds after the mixing was ceased. The area of foam in the tray was calculated and reported as % area of foam in tray.
# Foam performance evaluation was then accomplished for each of the cleansing compositions of Examples 1-8.
# Foaming of the Examples was considered acceptable if it was at least twice the amount of foam of Example 1.
# subject's eye = assay: Ocular Irritancy Test (human ocular sting); format: in vivo; conditions: 1.0% in mild cleansing composition
# Description: 2. Ocular Irritancy Test: Using a double-blinded, randomized, two (2) cell study test design, one (1) drop of a sample (e.g. a 10% dilution of a cleansing composition in water) at a temperature of about 38° C. was instilled into a subject's eye. A new sterile disposable eyedropper was used for each sample and disposed of after being used on only one individual's eye. All instillations were performed either by an investigator or by a trained technician.
# Within 30 seconds, or as closely as possible following instillation, the subject was asked to grade the perceived stinging sensation to the eye utilizing the following criteria:
# After 15 minutes and 60 minutes post-instillation, the subject was again asked to grade the perceived stinging sensation to the eye. The data was collected from a balanced, complete block experiment then statistically analyzed.
# The samples of Examples 1-8 were tested for ocular irritancy. The results are reported in Table 4 in terms of the percentage of subjects who found the respective sample to be stinging to their eyes.
# A sample was considered to have low ocular irritancy if less than 20% of the people tested found the sample to sting their eyes.
# [2] = Final batch viscosity, Brookfield DV-I+ Viscometer; format: physicochemical; conditions: 1.0% in cleansing composition; acceptable if at least twice the viscosity of Example 1
# Description: After this mixture had cooled to a temperature not greater than 40° C., the following components were added sequentially thereto: 0.10 parts Tetrasodium EDTA, 0.05 parts Quaternium-15, and 1.9 parts Glycerin. After this solution mixture had cooled to room temperature (approximately 25° C.), the pH of the resulting solution was then adjusted with a 20% citric acid solution until a final pH of 6.0 to 6.6 was obtained. The batch weight of the solution was then adjusted with water in order to achieve a total formulation of 100 parts. Table 2 lists the final batch viscosity of each Example as measured by a Brookfield DV-I+Viscometer using the indicated spindle and speed.
# The viscosity of the examples was considered acceptable if it was at least twice the viscosity of Example 1.
Substance,Effect on foam generation in mild cleansing compositions [1],Mildness to the eye relative to Cocamide MIPA and Cocamide MEA (subject's eye),Effect on viscosity of a mild cleansing composition [2]
Cocamide DEA [reference compound],effective at increasing foam generation,significantly more mild to the eye,effective at increasing the viscosity
Cocamide MEA [reference compound],effective at increasing foam generation,–,effective at increasing the viscosity
Cocamide MIPA [reference compound],effective at increasing foam generation,–,effective at increasing the viscosity
PEG-3 Cocamide,effective at increasing foam generation,significantly more mild to the eye,effective at increasing the viscosity
PEG-6 Lauramide,effective at increasing foam generation,significantly more mild to the eye,effective at increasing the viscosity
polyethylene glycol (“PEG”)-6 Cocamide [PEG-6 Cocamide],effective at increasing foam generation,significantly more mild to the eye,effective at increasing the viscosity
polypropylene glycol (“PPG”)-2 Hydroxyethyl Cocamide [PPG-2 Hydroxyethyl Cocamide],effective at increasing foam generation,significantly more mild to the eye,effective at increasing the viscosity
